In patent US10870647B2, “Imidazopyridine derivative, method for preparing same, and pharmaceutical composition containing same as active ingredient for preventing or treating cancer” (DAEGU-GYEONGBUK MEDICAL INNOVATION FOUNDATION, priority 2016, dated 2020):

Columns and labels:
Assay in all cases: Kinase selectivity, scanMAX Kinase assay panel (DiscoverX), % control at 1 uM
Format in all cases: binding
[1] = molecular target: T1, scanMAX Kinase assay panel (Homo sapiens, UniProt Q9UF33); conditions: EPHA6; 1 uM; read-out: Percent Control (%)
T1 construct: purchased DiscoverX
T1 sequence (Q9UF33 23-1036): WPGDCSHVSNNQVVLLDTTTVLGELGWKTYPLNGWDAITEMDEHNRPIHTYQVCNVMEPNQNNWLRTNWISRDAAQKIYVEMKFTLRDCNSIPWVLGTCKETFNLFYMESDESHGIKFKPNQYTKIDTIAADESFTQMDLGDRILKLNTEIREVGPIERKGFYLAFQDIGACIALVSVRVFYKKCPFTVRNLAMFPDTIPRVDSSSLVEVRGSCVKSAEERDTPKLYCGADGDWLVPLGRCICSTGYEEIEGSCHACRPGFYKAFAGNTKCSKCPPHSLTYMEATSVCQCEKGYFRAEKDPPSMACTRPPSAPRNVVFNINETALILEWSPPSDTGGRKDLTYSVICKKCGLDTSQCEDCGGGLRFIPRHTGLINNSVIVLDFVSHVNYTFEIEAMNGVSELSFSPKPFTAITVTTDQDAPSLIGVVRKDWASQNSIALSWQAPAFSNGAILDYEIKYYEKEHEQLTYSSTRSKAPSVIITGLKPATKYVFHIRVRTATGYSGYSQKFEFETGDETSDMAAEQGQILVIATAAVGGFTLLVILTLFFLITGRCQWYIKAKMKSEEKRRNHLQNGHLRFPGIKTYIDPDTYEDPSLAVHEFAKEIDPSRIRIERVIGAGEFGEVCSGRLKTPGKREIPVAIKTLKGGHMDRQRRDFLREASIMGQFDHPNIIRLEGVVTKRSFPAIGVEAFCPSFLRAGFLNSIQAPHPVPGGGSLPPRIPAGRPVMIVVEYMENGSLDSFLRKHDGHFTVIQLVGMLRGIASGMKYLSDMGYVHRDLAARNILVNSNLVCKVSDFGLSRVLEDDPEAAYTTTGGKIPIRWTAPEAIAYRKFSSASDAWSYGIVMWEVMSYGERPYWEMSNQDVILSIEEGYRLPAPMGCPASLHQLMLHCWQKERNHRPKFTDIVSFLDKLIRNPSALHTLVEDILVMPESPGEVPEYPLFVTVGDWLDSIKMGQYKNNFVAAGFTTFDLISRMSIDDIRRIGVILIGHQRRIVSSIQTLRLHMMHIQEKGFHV
Outline: (§1)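 Each kinase was first exposed to the test compound at 1 uM in DMSO. Signal was then normalised to positive and negative controls to give % control. Finally, any enzyme showing <35% control was judged inhibited.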

[2] = molecular target: T2, scanMAX Kinase assay panel (Homo sapiens, UniProt P06239); conditions: LCK; 1 uM; read-out: Percent Control (%)
T2 construct: purchased DiscoverX
T2 sequence (P06239 whole entry): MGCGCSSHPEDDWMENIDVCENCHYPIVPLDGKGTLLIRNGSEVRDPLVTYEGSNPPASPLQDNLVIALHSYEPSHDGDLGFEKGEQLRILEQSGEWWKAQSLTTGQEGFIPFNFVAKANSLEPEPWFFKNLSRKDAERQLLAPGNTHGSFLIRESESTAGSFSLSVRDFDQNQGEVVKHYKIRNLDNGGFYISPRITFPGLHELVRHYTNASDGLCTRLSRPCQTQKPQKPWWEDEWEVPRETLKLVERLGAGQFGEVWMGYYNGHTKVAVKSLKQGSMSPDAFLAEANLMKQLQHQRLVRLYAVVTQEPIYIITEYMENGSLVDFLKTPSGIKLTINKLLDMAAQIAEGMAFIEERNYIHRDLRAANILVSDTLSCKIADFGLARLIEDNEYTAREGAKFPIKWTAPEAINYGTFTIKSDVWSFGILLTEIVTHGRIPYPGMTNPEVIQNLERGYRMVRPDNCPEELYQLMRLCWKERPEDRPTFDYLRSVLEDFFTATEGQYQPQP
Outline: as §1

[3] = molecular target: T3, scanMAX Kinase assay panel (Homo sapiens, UniProt Q92772); conditions: CDKL2; 1 uM; read-out: Percent Control (%)
T3 construct: purchased DiscoverX
T3 sequence (Q92772 1-493): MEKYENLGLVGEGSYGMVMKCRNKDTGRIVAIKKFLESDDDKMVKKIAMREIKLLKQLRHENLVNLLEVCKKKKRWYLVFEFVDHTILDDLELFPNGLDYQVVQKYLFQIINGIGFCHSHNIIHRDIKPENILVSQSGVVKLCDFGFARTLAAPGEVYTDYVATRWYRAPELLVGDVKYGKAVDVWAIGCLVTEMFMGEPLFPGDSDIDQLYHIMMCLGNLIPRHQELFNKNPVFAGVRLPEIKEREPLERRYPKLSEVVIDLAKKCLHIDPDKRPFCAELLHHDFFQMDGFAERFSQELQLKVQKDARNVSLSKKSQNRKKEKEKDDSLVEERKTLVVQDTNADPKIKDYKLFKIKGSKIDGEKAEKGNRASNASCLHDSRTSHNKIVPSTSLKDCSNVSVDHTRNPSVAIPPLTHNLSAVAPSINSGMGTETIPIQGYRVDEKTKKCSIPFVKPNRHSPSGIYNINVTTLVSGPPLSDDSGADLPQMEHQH
Outline: as §1

[4] = molecular target: T4, scanMAX Kinase assay panel (Homo sapiens, UniProt P31749); conditions: AKT1; 1 uM; read-out: Percent Control (%)
T4 construct: purchased DiscoverX
T4 sequence (P31749 whole entry): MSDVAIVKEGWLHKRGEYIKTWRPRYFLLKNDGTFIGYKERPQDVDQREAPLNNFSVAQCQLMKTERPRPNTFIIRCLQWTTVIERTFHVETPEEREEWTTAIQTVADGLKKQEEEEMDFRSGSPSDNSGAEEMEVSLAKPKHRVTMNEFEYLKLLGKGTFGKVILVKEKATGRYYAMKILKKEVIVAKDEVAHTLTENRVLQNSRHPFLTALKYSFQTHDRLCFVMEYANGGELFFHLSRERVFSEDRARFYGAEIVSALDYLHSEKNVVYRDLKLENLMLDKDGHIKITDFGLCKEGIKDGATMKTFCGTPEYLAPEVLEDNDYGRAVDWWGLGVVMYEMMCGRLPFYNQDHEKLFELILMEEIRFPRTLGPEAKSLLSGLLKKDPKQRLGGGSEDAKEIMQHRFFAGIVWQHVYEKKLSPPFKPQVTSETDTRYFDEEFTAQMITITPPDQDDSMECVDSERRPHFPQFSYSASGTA
Outline: as §1

[5] = molecular target: T5, scanMAX Kinase assay panel (Homo sapiens, UniProt Q15208); conditions: NDR1; 1 uM; read-out: Percent Control (%)
T5 construct: purchased DiscoverX
T5 sequence (Q15208 whole entry): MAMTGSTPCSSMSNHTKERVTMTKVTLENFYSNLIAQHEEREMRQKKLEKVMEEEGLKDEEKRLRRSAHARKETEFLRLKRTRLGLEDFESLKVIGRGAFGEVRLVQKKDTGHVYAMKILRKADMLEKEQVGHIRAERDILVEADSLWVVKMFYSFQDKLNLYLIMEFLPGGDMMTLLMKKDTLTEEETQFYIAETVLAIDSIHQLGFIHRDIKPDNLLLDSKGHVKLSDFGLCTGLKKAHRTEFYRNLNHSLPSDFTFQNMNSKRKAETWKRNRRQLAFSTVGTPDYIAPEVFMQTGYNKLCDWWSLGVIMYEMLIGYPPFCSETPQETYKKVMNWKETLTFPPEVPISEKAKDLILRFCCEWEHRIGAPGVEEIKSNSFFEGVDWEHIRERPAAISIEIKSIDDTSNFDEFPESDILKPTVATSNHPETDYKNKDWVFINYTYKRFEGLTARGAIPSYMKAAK
Outline: as §1

[6] = molecular target: T6, scanMAX Kinase assay panel (Homo sapiens, UniProt Q9UM73); conditions: ALK; 1 uM; read-out: Percent Control (%)
T6 construct: purchased DiscoverX
T6 sequence (Q9UM73 19-1620): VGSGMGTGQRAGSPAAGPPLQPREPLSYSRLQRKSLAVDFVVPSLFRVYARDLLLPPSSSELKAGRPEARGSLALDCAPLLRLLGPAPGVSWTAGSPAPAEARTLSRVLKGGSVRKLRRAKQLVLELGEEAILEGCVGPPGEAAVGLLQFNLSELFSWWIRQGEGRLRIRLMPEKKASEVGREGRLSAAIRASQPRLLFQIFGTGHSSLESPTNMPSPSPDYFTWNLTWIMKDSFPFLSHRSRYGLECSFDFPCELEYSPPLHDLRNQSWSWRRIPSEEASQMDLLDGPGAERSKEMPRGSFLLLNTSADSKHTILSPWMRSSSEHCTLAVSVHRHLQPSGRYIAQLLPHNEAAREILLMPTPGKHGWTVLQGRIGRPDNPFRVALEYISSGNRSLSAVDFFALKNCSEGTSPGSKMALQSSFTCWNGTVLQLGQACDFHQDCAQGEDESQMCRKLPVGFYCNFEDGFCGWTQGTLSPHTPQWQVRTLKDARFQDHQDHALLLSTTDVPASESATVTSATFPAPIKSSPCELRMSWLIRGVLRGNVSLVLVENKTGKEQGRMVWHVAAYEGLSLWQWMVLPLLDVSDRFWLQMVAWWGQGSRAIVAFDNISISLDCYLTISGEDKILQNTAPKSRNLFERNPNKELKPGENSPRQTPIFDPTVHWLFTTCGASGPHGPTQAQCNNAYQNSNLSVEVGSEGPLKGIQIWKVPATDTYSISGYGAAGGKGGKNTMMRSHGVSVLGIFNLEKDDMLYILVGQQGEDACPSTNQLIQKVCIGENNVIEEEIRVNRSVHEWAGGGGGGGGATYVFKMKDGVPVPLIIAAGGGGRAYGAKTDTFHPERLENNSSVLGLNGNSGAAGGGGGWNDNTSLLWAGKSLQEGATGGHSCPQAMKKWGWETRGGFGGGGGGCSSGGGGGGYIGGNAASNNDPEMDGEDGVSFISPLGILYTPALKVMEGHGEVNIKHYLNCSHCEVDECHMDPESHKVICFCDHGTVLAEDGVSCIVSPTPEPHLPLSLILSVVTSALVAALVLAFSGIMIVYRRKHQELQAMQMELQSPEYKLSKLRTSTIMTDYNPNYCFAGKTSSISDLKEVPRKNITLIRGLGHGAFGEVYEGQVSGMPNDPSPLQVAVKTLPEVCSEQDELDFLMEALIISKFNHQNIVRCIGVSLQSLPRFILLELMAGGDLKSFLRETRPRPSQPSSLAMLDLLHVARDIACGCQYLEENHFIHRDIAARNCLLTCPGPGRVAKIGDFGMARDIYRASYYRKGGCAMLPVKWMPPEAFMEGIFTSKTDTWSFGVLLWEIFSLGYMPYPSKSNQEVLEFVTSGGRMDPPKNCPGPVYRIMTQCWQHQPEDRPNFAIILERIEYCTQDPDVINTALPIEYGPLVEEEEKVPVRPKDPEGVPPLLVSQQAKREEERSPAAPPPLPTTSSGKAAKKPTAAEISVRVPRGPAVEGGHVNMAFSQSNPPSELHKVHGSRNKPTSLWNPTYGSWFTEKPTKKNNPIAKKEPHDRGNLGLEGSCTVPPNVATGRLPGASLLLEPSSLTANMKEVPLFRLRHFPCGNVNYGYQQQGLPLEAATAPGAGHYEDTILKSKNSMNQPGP
Outline: as §1

[7] = molecular target: T7, scanMAX Kinase assay panel (Homo sapiens, UniProt P15735); conditions: PHKG2; 1 uM; read-out: Percent Control (%)
T7 construct: purchased DiscoverX
T7 sequence (P15735 1-406): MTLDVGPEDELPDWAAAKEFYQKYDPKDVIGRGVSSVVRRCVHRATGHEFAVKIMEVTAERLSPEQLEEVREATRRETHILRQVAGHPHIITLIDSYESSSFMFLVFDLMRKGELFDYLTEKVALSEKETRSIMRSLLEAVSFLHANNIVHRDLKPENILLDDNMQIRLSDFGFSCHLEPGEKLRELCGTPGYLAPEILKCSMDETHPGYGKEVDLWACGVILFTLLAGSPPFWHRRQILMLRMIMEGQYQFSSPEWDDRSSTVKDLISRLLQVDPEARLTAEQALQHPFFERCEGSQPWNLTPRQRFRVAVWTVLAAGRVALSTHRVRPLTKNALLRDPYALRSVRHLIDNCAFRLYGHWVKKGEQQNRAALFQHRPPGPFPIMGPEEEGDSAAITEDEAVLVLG
Outline: as §1

SMILES | remaining binding at 1 µM [1] | remaining binding at 1 µM [2] | remaining binding at 1 µM [3] | remaining binding at 1 µM [4] | remaining binding at 1 µM [5] | remaining binding at 1 µM [6] | remaining binding at 1 µM [7]
Cc1ccc(C(=O)Nc2ccc(CN3CCN(C)CC3)c(C(F)(F)F)c2)cc1C#Cc1cnc2c(Nc3cnn(C)c3)cccn12 [Example 1, 4-methyl-3-((8-((1-methyl-1H-pyrazol-4-yl)amino)imidazo[1,2-a]pyridin-3-yl)ethynyl)-N-(4-((4-methylpiperazin-1-yl)methyl)-3-(trifluoromethyl)phenyl)benzamide] | 2% | 0% | 0% | 80% | 56% | 70% | 72%
Cc1cn(-c2cc(NC(=O)c3ccc(C)c(C#Cc4cnc5c(Nc6cnn(C)c6)cccn45)c3)cc(C(F)(F)F)c2)cn1 [Example 12, 4-methyl-N-(3-(4-methyl-1H-imidazol-1-yl)-5-(trifluoromethyl)phenyl)-3-((8-((1-methyl-1H-pyrazol-4-yl)amino)imidazo[1,2-a]pyridin-3-yl)ethynyl)benzamide] | 19% | 0% | 55% | 88% | 98% | 100% | 89%
Cc1ccc(NC(=O)C2(C(=O)Nc3ccc(F)cc3)CC2)cc1C#Cc1cnc2c(Nc3cnn(C(C)C)c3)cccn12 [Example 78] | 90% | 40% | 94% | 98% | 83% | 100% | 100%
